Laboratory results reported in patent US11072617B2, “Bicyclic sulfones and sulfoxides and methods of use thereof” (Genentech, Inc., priority 2017, dated 2021).

Molecular target: human RIP1 kinase domain (2-375) (Homo sapiens (Human), UniProt Q13546)
Assay: RIP1 kinase inhibition biochemical assay (Transcreener ADP, fluorescence polarization)
Conditions: Ki app from tight-binding Morrison equation; 50 nM enzyme, 50 uM ATP, 2 hours incubation
Outline: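 Baculovirus-expressed human RIP1 kinase domain (2-375), 50 nM, incubated 2 h with compounds in pH 7.5 Hepes, 30 mM MgCl2, 50 uM ATP, 0.5% DMSO. ADP detected by Transcreener fluorescence-polarization tracer displacement; Ki^app from Morrison tight-binding fit.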

Chain of human RIP1 kinase domain (2-375) (Q13546 2-375): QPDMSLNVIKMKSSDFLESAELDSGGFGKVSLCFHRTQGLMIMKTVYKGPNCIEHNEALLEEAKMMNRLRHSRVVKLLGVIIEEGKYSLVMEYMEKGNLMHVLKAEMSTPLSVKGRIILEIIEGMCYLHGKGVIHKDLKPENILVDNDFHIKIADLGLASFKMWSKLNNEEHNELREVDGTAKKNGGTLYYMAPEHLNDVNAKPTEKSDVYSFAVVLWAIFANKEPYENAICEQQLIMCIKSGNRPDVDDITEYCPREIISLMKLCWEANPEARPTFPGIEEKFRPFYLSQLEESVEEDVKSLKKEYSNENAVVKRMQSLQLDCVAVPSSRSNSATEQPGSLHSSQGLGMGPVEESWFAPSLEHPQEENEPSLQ

Row | Ki | Compound
1 | 55 nM | N#C[C@H]1C[C@@H](S(=O)(=O)c2nc3n(n2)[C@H](c2ccccc2)C[C@@H]3F)C1 [Example 210, Cis-3-[[(5S,7S)-7-fluoro-5-phenyl-6,7-dihydro-5H-pyrrolo[1,2-b][1,2,4]triazol-2-yl]sulfonyl]cyclobutanecarbonitrile]
2 | 11 nM | CCS(=O)(=O)c1nc2n(n1)[C@H](c1ccccc1)C[C@@H]2F (single isomer, unassigned) [Example 108]
3 | 15 nM | O=S(=O)(Cc1ccccc1)c1nc2n(n1)[C@H](c1ccccc1)C[C@@H]2F (single isomer, unassigned) [Example 19]
4 | 9 nM | O=S(=O)(c1nc2n(n1)[C@H](c1ccc(F)c(F)c1)C[C@@H]2F)[C@@H]1C[C@H]1F (single isomer, unassigned) [Example 144]
5 | 92 nM | N#CC[S@+]([O-])c1nc2n(n1)[C@H](c1ccccc1Cl)C[C@@H]2F (single isomer, unassigned) [Example 93]
6 | 34 nM | O=S(=O)(c1nc2n(n1)[C@H](c1c(F)cccc1F)C[C@@H]2F)C(F)F (single isomer, unassigned) [Example 58]
